According to patent US20260262643A1, “HERBICIDAL BENZOXAZINES” (FMC CORPORATION, priority 2022, published 2026):

Assays:
barnyardgrass [1] = test: Test C preemergence; assay type: in vivo, Echinochloa crusgalli; details: 0 to 100 scale (0 no effect, 100 complete control); for Barnyardgrass plant response rating: 125 g ai/ha, preemergence; for Plant response rating, Barnyardgrass: Preemergence, 500 g ai/ha, visual rating after 10 days
Summary of the method: (§1)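 Seeds in loam–sand blend received preemergence directed soil spray of test chemicals in non-phytotoxic solvent with surfactant; postemergence treatment was applied at one- to two-leaf stage (2–10 cm). After 10 days in greenhouse, injury rated visually versus untreated controls, 0 (no effect) to 100 (complete control).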

blackgrass [2] = test: Test C preemergence; assay type: in vivo, Alopecurus myosuroides; details: 0 to 100 scale (0 no effect, 100 complete control); for Plant response rating, Blackgrass: Preemergence, 500 g ai/ha, visual rating after 10 days; for Blackgrass plant response rating: Test C, preemergence, 125 g ai/ha
Summary of the method: as §1

corn [3] = test: Test C preemergence; assay type: in vivo, Zea mays; details: 0 to 100 scale (0 no effect, 100 complete control); for Plant response rating, Corn: Preemergence, 500 g ai/ha, visual rating after 10 days; for Corn plant response rating: Test C, preemergence, 125 g ai/ha
Summary of the method: as §1

green foxtail [4] = test: Test C preemergence; assay type: in vivo, Setaria viridis; details: 0 to 100 scale (0 no effect, 100 complete control); for Plant response rating, Foxtail, Green: Preemergence, 500 g ai/ha, visual rating after 10 days; for Foxtail, Green plant response rating: Test C, preemergence, 125 g ai/ha
Summary of the method: as §1

kochia [5] = test: Test C preemergence; assay type: in vivo, Bassia scoparia; details: 0 to 100 scale (0 no effect, 100 complete control); for Plant response rating, Kochia: Preemergence, 500 g ai/ha, visual rating after 10 days; for Kochia plant response rating: Test C, preemergence, 125 g ai/ha
Summary of the method: as §1

oat, wild [6] = test: Test C preemergence; assay type: in vivo, Avena fatua; details: 0 to 100 scale (0 no effect, 100 complete control); for Plant response rating, Oat, Wild: Preemergence, 500 g ai/ha, visual rating after 10 days; for Oat, Wild plant response rating: Test C, preemergence, 125 g ai/ha
Summary of the method: as §1

pigweed, palmer [7] = test: Test C preemergence; assay type: in vivo, Amaranthus palmeri; details: 0 to 100 scale (0 no effect, 100 complete control); for Plant response rating, Pigweed, Palmer: Preemergence, 500 g ai/ha, visual rating after 10 days; for Pigweed, Palmer plant response rating: Test C, preemergence, 125 g ai/ha
Summary of the method: as §1

ragweed [8] = test: Test C preemergence; assay type: in vivo, Ambrosia artemisiifolia; details: 0 to 100 scale (0 no effect, 100 complete control); for Plant response rating, Ragweed: Preemergence, 500 g ai/ha, visual rating after 10 days; for Ragweed plant response rating: Test C, preemergence, 125 g ai/ha
Summary of the method: as §1

ryegrass, Italian [9] = test: Test C preemergence; assay type: in vivo, Lolium multiflorum; details: 0 to 100 scale (0 no effect, 100 complete control); for Plant response rating, Ryegrass, Italian: Preemergence, 500 g ai/ha, visual rating after 10 days; for Ryegrass, Italian plant response rating: Test C, preemergence, 125 g ai/ha
Summary of the method: as §1

soybean [10] = test: Test C preemergence; assay type: in vivo, Glycine max; details: 0 to 100 scale (0 no effect, 100 complete control); for Plant response rating, Soybean: Preemergence, 500 g ai/ha, visual rating after 10 days; for Soybean plant response rating: Test C, preemergence, 125 g ai/ha
Summary of the method: as §1

wheat [11] = test: Test C preemergence; assay type: in vivo, Triticum aestivum; details: 0 to 100 scale (0 no effect, 100 complete control); for Plant response rating, Wheat: Preemergence, 500 g ai/ha, visual rating after 10 days; for Wheat plant response rating: Test C, preemergence, 125 g ai/ha
Summary of the method: as §1

barnyardgrass [12] = test: Test C postemergence; assay type: in vivo, Echinochloa crusgalli; details: 10 days
Summary of the method: as §1

blackgrass [13] = test: Test C postemergence; assay type: in vivo, Alopecurus myosuroides; details: 10 days
Summary of the method: as §1

corn [14] = test: Test C postemergence; assay type: in vivo, Zea mays; details: 10 days
Summary of the method: as §1

green foxtail [15] = test: Test C postemergence; assay type: in vivo, Setaria viridis; details: 10 days
Summary of the method: as §1

kochia [16] = test: Test C postemergence; assay type: in vivo, Bassia scoparia; details: 10 days
Summary of the method: as §1

oat, wild [17] = test: Test C postemergence; assay type: in vivo, Avena fatua; details: 10 days
Summary of the method: as §1

pigweed, palmer [18] = test: Test C postemergence; assay type: in vivo, Amaranthus palmeri; details: 10 days
Summary of the method: as §1

ragweed [19] = test: Test C postemergence; assay type: in vivo, Ambrosia artemisiifolia; details: 10 days
Summary of the method: as §1

ryegrass, Italian [20] = test: Test C postemergence; assay type: in vivo, Lolium multiflorum; details: 10 days
Summary of the method: as §1

soybean [21] = test: Test C postemergence; assay type: in vivo, Glycine max; details: 10 days
Summary of the method: as §1

wheat [22] = test: Test C postemergence; assay type: in vivo, Triticum aestivum; details: 10 days
Summary of the method: as §1

galium = test: Test C postemergence; assay type: in vivo, Galium aparine; details: 10 days
Summary of the method: as §1

horseweed = test: Test C postemergence; assay type: in vivo, Erigeron canadensis; details: 10 days
Summary of the method: as §1

barnyardgrass [23] = test: Test D flooded paddy test; assay type: in vivo, Echinochloa crus-galli; details: 250 g ai/ha, applied to paddy water, visual rating after 13 to 14 days, scale 0 to 100 (0 no effect, 100 complete control)
Summary of the method: (§2)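 Plants grown to the 2-leaf stage; pots flooded to 3 cm above soil at treatment and held at that depth throughout. Test compounds applied directly to the paddy water. After 13 to 14 days in a greenhouse, response was rated visually versus controls on a 0 (no effect) to 100 (complete control) scale.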

ducksalad = test: Test D flooded paddy test; assay type: in vivo, Heteranthera limosa; details: 250 g ai/ha, applied to paddy water, visual rating after 13 to 14 days, scale 0 to 100 (0 no effect, 100 complete control)
Summary of the method: as §2

rice = test: Test D flooded paddy test; assay type: in vivo, Oryza sativa; details: 250 g ai/ha, applied to paddy water, visual rating after 13 to 14 days, scale 0 to 100 (0 no effect, 100 complete control)
Summary of the method: as §2

sedge, umbrella = test: Test D flooded paddy test; assay type: in vivo, Cyperus difformis; details: 250 g ai/ha, applied to paddy water, visual rating after 13 to 14 days, scale 0 to 100 (0 no effect, 100 complete control)
Summary of the method: as §2

[24] = 125 g ai/ha, postemergence, 0 to 100 scale, 0 no effect, 100 complete control
[25] = Postemergence, 500 g ai/ha, visual 0 to 100 scale (0 no effect, 100 complete control)

CCc1ncn(-c2cc3c(c(C(=O)N4C[C@H](C)Oc5c(Cl)cccc54)c2)OCCO3)n1 [Compound 155]
50: Blackgrass plant response rating (blackgrass [2]) | Plant response rating, Corn (corn [3]) | Plant response rating, Oat, Wild (oat, wild [6]) | Plant response rating, Oat, Wild (oat, wild [17]; [25])
70: Ryegrass, Italian plant response rating (ryegrass, Italian [9]) | Soybean plant response rating (soybean [10]) | Plant response rating, Wheat (wheat [11]) | Plant response rating, Ryegrass, Italian (ryegrass, Italian [20]; [24]) | Plant response rating, Horseweed (horseweed; [24]) | Plant response rating, Horseweed (horseweed; [25])
15: Plant response rating, Rice (Flood) (rice)
40: Plant response rating, Corn (corn [14]; [24])
90: Barnyardgrass plant response rating (barnyardgrass [1]) | Plant response rating, Blackgrass (blackgrass [2]) | Plant response rating, Kochia (kochia [5]) | Plant response rating, Ryegrass, Italian (ryegrass, Italian [9]) | Plant response rating, Barnyardgrass (barnyardgrass [12]; [24]) | Plant response rating, Barnyardgrass (barnyardgrass [12]; [25]) | Plant response rating, Blackgrass (blackgrass [13]; [24]) | Plant response rating, Corn (corn [14]; [25]) | Plant response rating, Foxtail, Green (green foxtail [15]; [24]) | Plant response rating, Foxtail, Green (green foxtail [15]; [25]) | Plant response rating, Kochia (kochia [16]; [25]) | Plant response rating, Pigweed, Palmer (pigweed, palmer [18]; [24])
60: Ragweed plant response rating (ragweed [8]) | Plant response rating, Wheat (wheat [22]; [24]) | Plant response rating, Ducksalad (Flood) (ducksalad)
30: Oat, Wild plant response rating (oat, wild [6])
80: Kochia plant response rating (kochia [5]) | Plant response rating, Kochia (kochia [16]; [24]) | Plant response rating, Wheat (wheat [22]; [25])
98: Plant response rating, Sedge, Umbrella (Flood) (sedge, umbrella)
20: Wheat plant response rating (wheat [11]) | Plant response rating, Oat, Wild (oat, wild [17]; [24]) | Plant response rating, Barnyardgrass (Flood) (barnyardgrass [23])
100: Plant response rating, Barnyardgrass (barnyardgrass [1]) | Plant response rating, Foxtail, Green (green foxtail [4]) | Foxtail, Green plant response rating (green foxtail [4]) | Plant response rating, Pigweed, Palmer (pigweed, palmer [7]) | Pigweed, Palmer plant response rating (pigweed, palmer [7]) | Plant response rating, Ragweed (ragweed [8]) | Plant response rating, Soybean (soybean [10]) | Plant response rating, Blackgrass (blackgrass [13]; [25]) | Plant response rating, Pigweed, Palmer (pigweed, palmer [18]; [25]) | Plant response rating, Ragweed (ragweed [19]; [24]) | Plant response rating, Ragweed (ragweed [19]; [25]) | Plant response rating, Ryegrass, Italian (ryegrass, Italian [20]; [25]) | Plant response rating, Soybean (soybean [21]; [24]) | Plant response rating, Soybean (soybean [21]; [25]) | Plant response rating, Galium (galium; [24]) | Plant response rating, Galium (galium; [25])
10: Corn plant response rating (corn [3])

C[C@H]1CN(C(=O)c2cc(-n3cnc(C(C)(C)C)n3)cc3c2OCCO3)c2cccc(Cl)c2O1 [Compound 154]
90: Plant response rating, Ryegrass, Italian (ryegrass, Italian [9]) | Plant response rating, Blackgrass (blackgrass [13]; [25]) | Plant response rating, Foxtail, Green (green foxtail [15]; [25]) | Plant response rating, Pigweed, Palmer (pigweed, palmer [18]; [24]) | Plant response rating, Soybean (soybean [21]; [24])
20: Blackgrass plant response rating (blackgrass [2]) | Oat, Wild plant response rating (oat, wild [6]) | Plant response rating, Barnyardgrass (barnyardgrass [12]; [24]) | Plant response rating, Blackgrass (blackgrass [13]; [24]) | Plant response rating, Corn (corn [14]; [24]) | Plant response rating, Oat, Wild (oat, wild [17]; [25])
60: Plant response rating, Blackgrass (blackgrass [2]) | Plant response rating, Wheat (wheat [11])
80: Plant response rating, Horseweed (horseweed; [24])
10: Wheat plant response rating (wheat [11]) | Plant response rating, Oat, Wild (oat, wild [17]; [24]) | Plant response rating, Wheat (wheat [22]; [24]) | Plant response rating, Ducksalad (Flood) (ducksalad) | Plant response rating, Rice (Flood) (rice)
40: Soybean plant response rating (soybean [10]) | Plant response rating, Foxtail, Green (green foxtail [15]; [24])
15: Plant response rating, Barnyardgrass (Flood) (barnyardgrass [23])
70: Barnyardgrass plant response rating (barnyardgrass [1]) | Ryegrass, Italian plant response rating (ryegrass, Italian [9]) | Plant response rating, Ryegrass, Italian (ryegrass, Italian [20]; [25]) | Plant response rating, Horseweed (horseweed; [25]) | Plant response rating, Sedge, Umbrella (Flood) (sedge, umbrella)
50: Ragweed plant response rating (ragweed [8]) | Plant response rating, Barnyardgrass (barnyardgrass [12]; [25]) | Plant response rating, Corn (corn [14]; [25])
30: Plant response rating, Corn (corn [3]) | Plant response rating, Oat, Wild (oat, wild [6]) | Plant response rating, Ryegrass, Italian (ryegrass, Italian [20]; [24]) | Plant response rating, Wheat (wheat [22]; [25])
100: Plant response rating, Barnyardgrass (barnyardgrass [1]) | Plant response rating, Foxtail, Green (green foxtail [4]) | Foxtail, Green plant response rating (green foxtail [4]) | Plant response rating, Kochia (kochia [5]) | Kochia plant response rating (kochia [5]) | Plant response rating, Pigweed, Palmer (pigweed, palmer [7]) | Pigweed, Palmer plant response rating (pigweed, palmer [7]) | Plant response rating, Ragweed (ragweed [8]) | Plant response rating, Soybean (soybean [10]) | Plant response rating, Kochia (kochia [16]; [24]) | Plant response rating, Kochia (kochia [16]; [25]) | Plant response rating, Pigweed, Palmer (pigweed, palmer [18]; [25]) | Plant response rating, Ragweed (ragweed [19]; [24]) | Plant response rating, Ragweed (ragweed [19]; [25]) | Plant response rating, Soybean (soybean [21]; [25]) | Plant response rating, Galium (galium; [24]) | Plant response rating, Galium (galium; [25])
0: Corn plant response rating (corn [3])
